# According to US20260285850A1, “SUBSTITUTED OXAZOLIDINONES AND IMIDAZOLINONES AS HERBICIDES” (FMC CORPORATION, priority 2023, published 2026):
# How the values were obtained:
# Type in all cases: in vivo
# [1] = tested on: barnyardgrass (Echinochloa crus-galli); assay: Test A preemergence soil spray, visual injury rating 0-100; settings: 10 days
# Source text: (§1) Seeds of plant species selected from barnyardgrass (Echinochloa crus-galli), blackgrass (Alopecurus myosuroides), corn (Zea mays), foxtail, giant (giant foxtail, Setaria faberi), green foxtail (Setaria viridis), goosegrass (Eleusine indica), kochia (Bassia scoparia), oat, wild (wild oat, Avena fatua), palmer (palmer amaranth, palmer pigweed, Amaranthus palmeri), ragweed (common ragweed, Ambrosia artemisiifolia), ryegrass, Italian (italian ryegrass, Lolium multiflorum), soybean (Glycine max) and wheat (Triticum aestivum) were planted into a blend of loam soil and sand and treated preemergence with a directed soil spray using test chemicals formulated in a non-phytotoxic solvent mixture which included a surfactant.
# (§2) At the same time, plants selected from these crops and weed species and also galium (catchweed bedstraw, Galium aparine) and horseweed (Erigeron canadensis) were planted in pots containing the same blend of loam soil and sand and treated with postemergence applications of test chemicals formulated in the same manner. Plants ranged in height from 2 to 10 cm and were in the one- to two-leaf stage for the postemergence treatment. Treated plants and untreated controls were maintained in a greenhouse for 10 days, after which time all treated plants were compared to untreated controls and visually evaluated for injury. Plant response ratings, summarized in Table A, are based on a 0 to 100 scale where 0 is no effect and 100 is complete control. A dash (-) response means no test result.
# [2] = tested on: blackgrass (Alopecurus myosuroides); assay: as above; settings: 10 days
# Source text: as §1, §2
# corn (Zea mays) [3] = assay: as above; settings: 10 days
# Source text: as §1, §2
# [4] = tested on: green foxtail (Setaria viridis); assay: as above; settings: 10 days
# Source text: as §1, §2
# kochia (Bassia scoparia) [5] = assay: as above; settings: 10 days
# Source text: as §1, §2
# [6] = tested on: oat, wild (wild oat, Avena fatua); assay: as above; settings: 10 days
# Source text: as §1, §2
# [7] = tested on: palmer (palmer amaranth, palmer pigweed, Amaranthus palmeri); assay: as above; settings: 10 days
# Source text: as §1, §2
# [8] = tested on: ragweed (common ragweed, Ambrosia artemisiifolia); assay: as above; settings: 10 days
# Source text: as §1, §2
# [9] = tested on: ryegrass, Italian (italian ryegrass, Lolium multiflorum); assay: as above; settings: 10 days
# Source text: as §1, §2
# soybean (Glycine max) [10] = assay: as above; settings: 10 days
# Source text: as §1, §2
# [11] = tested on: wheat (Triticum aestivum); assay: as above; settings: 10 days
# Source text: as §1, §2
# [12] = tested on: barnyardgrass (Echinochloa crus-galli); assay: Test A postemergence application, visual injury rating 0-100
# Source text: as §1, §2
# [13] = tested on: blackgrass (Alopecurus myosuroides); assay: as above
# Source text: as §1, §2
# corn (Zea mays) [14] = assay: as above
# Source text: as §1, §2
# [15] = tested on: green foxtail (Setaria viridis); assay: as above
# Source text: as §1, §2
# [16] = tested on: horseweed (Erigeron canadensis); assay: as above
# Source text: as §1, §2
# kochia (Bassia scoparia) [17] = assay: as above
# Source text: as §1, §2
# [18] = tested on: oat, wild (wild oat, Avena fatua); assay: as above
# Source text: as §1, §2
# [19] = tested on: palmer (palmer amaranth, palmer pigweed, Amaranthus palmeri); assay: as above
# Source text: as §1, §2
# [20] = tested on: ragweed (common ragweed, Ambrosia artemisiifolia); assay: as above
# Source text: as §1, §2
# [21] = tested on: ryegrass, Italian (italian ryegrass, Lolium multiflorum); assay: as above
# Source text: as §1, §2
# soybean (Glycine max) [22] = assay: as above
# Source text: as §1, §2
# [23] = tested on: wheat (Triticum aestivum); assay: as above
# Source text: as §1, §2
# [24] = tested on: barnyardgrass (Echinochloa crusgalli); assay: Test B flooded paddy test, visual plant response rating 0-100; settings: 250 g ai/ha, Flood, applied to paddy water, evaluated after 13 days
# Experimental: (§3) Plant species in the flooded paddy test selected from barnyardgrass (Echinochloa crusgalli), ducksalad (Heteranthera limosa), rice (Oryza sativa), and sedge, umbrella (small-flower umbrella sedge, Cyperus difformis) were grown to the 2-leaf stage for testing. At time of treatment, test pots were flooded to 3 cm above the soil surface, treated by application of test compounds directly to the paddy water, and then maintained at that water depth for the duration of the test. Treated plants and controls were maintained in a greenhouse for 13 days, after which time all species were compared to controls and visually evaluated. […] A dash (-) response means no test result.
# [25] = tested on: ducksalad (Heteranthera limosa); assay: as above; settings: 250 g ai/ha, Flood, applied to paddy water, evaluated after 13 days
# Experimental: as §3
# rice (Oryza sativa) = assay: as above; settings: 250 g ai/ha, Flood, applied to paddy water, evaluated after 13 days
# Experimental: as §3
# [26] = tested on: sedge, umbrella (small-flower umbrella sedge, Cyperus difformis); assay: as above; settings: 250 g ai/ha, Flood, applied to paddy water, evaluated after 13 days
# Experimental: as §3
# [27] = 62 g ai/ha, 0 = no effect, 100 = complete control
# [28] = 62 g ai/ha, postemergence, 10 days, 0 = no effect, 100 = complete control
# [29] = Postemergence, 16 g ai/ha, greenhouse 10 days, 0 no effect, 100 complete control
smiles,measurement,setting,value
COC(=O)COC(=O)C1=CCC(NC(=O)C2(C)CN(c3cc(Cl)cc(Cl)c3)C(=O)O2)C1 (centres unmarked) [Compound 109],Barnyardgrass plant response rating,"[1]; 16 g ai/ha, 0 to 100 scale",0
same,Barnyardgrass plant response rating (0-100),[1]; [27],0
same,Blackgrass plant response rating,"[2]; 16 g ai/ha, 0 to 100 scale",0
same,Blackgrass plant response rating (0-100),[2]; [27],0
same,Corn plant response rating,"corn (Zea mays) [3]; 16 g ai/ha, 0 to 100 scale",0
same,Corn plant response rating (0-100),corn (Zea mays) [3]; [27],0
same,"Foxtail, Green plant response rating","[4]; 16 g ai/ha, 0 to 100 scale",0
same,"Foxtail, Green plant response rating (0-100)",[4]; [27],0
same,Kochia plant response rating,"kochia (Bassia scoparia) [5]; 16 g ai/ha, 0 to 100 scale",0
same,Kochia plant response rating (0-100),kochia (Bassia scoparia) [5]; [27],0
same,"Oat, Wild plant response rating","[6]; 16 g ai/ha, 0 to 100 scale",0
same,"Oat, Wild plant response rating (0-100)",[6]; [27],0
same,"Pigweed, Palmer plant response rating","[7]; 16 g ai/ha, 0 to 100 scale",0
same,"Pigweed, Palmer plant response rating (0-100)",[7]; [27],0
same,Ragweed plant response rating,"[8]; 16 g ai/ha, 0 to 100 scale",0
same,Ragweed plant response rating (0-100),[8]; [27],0
same,"Ryegrass, Italian plant response rating","[9]; 16 g ai/ha, 0 to 100 scale",0
same,"Ryegrass, Italian plant response rating (0-100)",[9]; [27],0
same,Soybean plant response rating,"soybean (Glycine max) [10]; 16 g ai/ha, 0 to 100 scale",0
same,Soybean plant response rating (0-100),soybean (Glycine max) [10]; [27],0
same,Wheat plant response rating,"[11]; 16 g ai/ha, 0 to 100 scale",0
same,Wheat plant response rating (0-100),[11]; [27],0
same,Barnyardgrass plant response rating (0-100),[12]; [28],20
same,Barnyardgrass plant response rating (0 to 100 scale),[12]; [29],0
same,Blackgrass plant response rating (0-100),[13]; [28],30
same,Blackgrass plant response rating (0 to 100 scale),[13]; [29],0
same,Corn plant response rating (0-100),corn (Zea mays) [14]; [28],0
same,Corn plant response rating (0 to 100 scale),corn (Zea mays) [14]; [29],0
same,"Foxtail, Green plant response rating (0-100)",[15]; [28],0
same,"Foxtail, Green plant response rating (0 to 100 scale)",[15]; [29],0
same,Horseweed plant response rating (0-100),[16]; [28],20
same,Horseweed plant response rating (0 to 100 scale),[16]; [29],0
same,Kochia plant response rating (0-100),kochia (Bassia scoparia) [17]; [28],0
same,Kochia plant response rating (0 to 100 scale),kochia (Bassia scoparia) [17]; [29],0
same,"Oat, Wild plant response rating (0-100)",[18]; [28],0
same,"Oat, Wild plant response rating (0 to 100 scale)",[18]; [29],0
same,"Pigweed, Palmer plant response rating (0-100)",[19]; [28],40
same,"Pigweed, Palmer plant response rating (0 to 100 scale)",[19]; [29],0
same,Ragweed plant response rating (0-100),[20]; [28],0
same,Ragweed plant response rating (0 to 100 scale),[20]; [29],0
same,"Ryegrass, Italian plant response rating (0-100)",[21]; [28],0
same,"Ryegrass, Italian plant response rating (0 to 100 scale)",[21]; [29],0
same,Soybean plant response rating (0-100),soybean (Glycine max) [22]; [28],0
same,Soybean plant response rating (0 to 100 scale),soybean (Glycine max) [22]; [29],0
same,Wheat plant response rating (0-100),[23]; [28],0
same,Wheat plant response rating (0 to 100 scale),[23]; [29],0
same,"Plant response rating, Barnyardgrass (0 to 100 scale, 0 is no effect and 100 is complete control)",[24],0
same,"Plant response rating, Ducksalad (0 to 100 scale, 0 is no effect and 100 is complete control)",[25],0
same,"Plant response rating, Rice (0 to 100 scale, 0 is no effect and 100 is complete control)",rice (Oryza sativa),0
same,"Plant response rating, Sedge, Umbrella (0 to 100 scale, 0 is no effect and 100 is complete control)",[26],0
